Results from PubChem BioAssay AID493250 (Broad Institute, 2011).
Activity calls are given as the source filed them.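 Rule for the calls: active = signal decrease with fitted half-maximal dose at or below ten times the highest valid tested dose; inconclusive = poor fit, or flat fit at 30 to 70% inhibition; inactive = the rest.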

These compounds were tested against Zinc finger protein mex-5 (Caenorhabditis elegans) (UniProt Q9XUB2) (assay: inhibitors of MEX-5 RNA binding, dose response, biochemical, fluorescence polarization, C. elegans, cherry-picked, round 3 (AID 493250)). Conditions: purified MEX-5-MBP, FITC-TCR2 RNA fluorescence polarization.
Sequence of Zinc finger protein mex-5 (Caenorhabditis elegans) (Q9XUB2 whole entry, looked up): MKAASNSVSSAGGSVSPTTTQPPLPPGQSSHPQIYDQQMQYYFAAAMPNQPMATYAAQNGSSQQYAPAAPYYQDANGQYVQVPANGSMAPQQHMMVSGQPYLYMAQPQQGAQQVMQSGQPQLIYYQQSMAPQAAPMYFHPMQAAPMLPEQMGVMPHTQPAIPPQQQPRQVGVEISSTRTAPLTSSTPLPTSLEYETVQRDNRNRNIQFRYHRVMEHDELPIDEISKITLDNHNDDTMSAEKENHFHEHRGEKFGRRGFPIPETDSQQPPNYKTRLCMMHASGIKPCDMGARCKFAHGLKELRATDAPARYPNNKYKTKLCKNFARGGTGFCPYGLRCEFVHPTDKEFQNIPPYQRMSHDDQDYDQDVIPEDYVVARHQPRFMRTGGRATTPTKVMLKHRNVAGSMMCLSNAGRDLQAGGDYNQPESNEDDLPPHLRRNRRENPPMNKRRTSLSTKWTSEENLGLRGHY

Compound | AC50
CCCC1C2CN(C(C)C)CC=C2C(C#N)=C(N)C1(C#N)C#N (configuration not stated) | 4.99 µM
CCCOc1cc(N(CC)CC)ccc1/C=C(/C#N)c1nc2ccc(C)cc2[nH]1 | 6.33 µM
C=CCn1c(=O)[nH]c2nc3cc(N=CN(C)C)c(C)cc3nc2c1=O | 5.73 µM
CN1CC=C2C(C#N)=C(N)C(C#N)(C#N)C(Cc3ccccc3)C2C1 (configuration not stated) | 4.69 µM
CCOCCCn1c(=N)c(S(=O)(=O)c2ccccc2)cc2c(=O)n3cc(C)ccc3nc21 | 10.3 µM
CNC(=O)c1cc2ccc(OC)cc2oc1=O | > 10 µM (inactive)
OCCCc1nc2n(n1)C(c1ccccc1Cl)C=C(c1cccs1)N2 (configuration not stated) | 10.1 µM
CCOC(=O)/C(=C/c1ccc(N2CCC(c3ccccc3)=N2)cc1)C(C)=O | 2.43 µM
CCOc1cc(/C=C2\CCCc3c2nc2ccccc2c3C(=O)O)ccc1OC | 0.906 µM
COc1ccc(/C(O)=C/c2nc3ccccc3n(-c3ccccc3)c2=O)cc1 | 3.25 µM
COc1ccccc1/C=C1\SC(=S)N(CCC(=O)Nc2cc(C)on2)C1=O | > 10 µM (inactive)

Same assay, conditions: purified MEX-5-MBP, FITC-TCR2 RNA fluorescence polarization; at 10 µM (top of the series)

Compound | activity change, negative = inhibition
COc1cc2c3c(c1OC)-c1cc(O)ccc1CC3NCC2 (configuration not stated) | inactive
O=c1[nH]cnc2c1C(c1ccc(Cl)cc1)c1c(nc[nH]c1=O)O2 | inactive
O=C(NC1CCSc2ccccc21)c1ccccc1Br (configuration not stated) | inactive
Nc1ccc2oc(-c3ccccc3Cl)cc(=O)c2c1O | inactive
Oc1c(Cl)cc(Cl)c2c1NCCC2 | inactive
COC(=O)CCC(=O)NC(=S)Nc1sc(C)c(C)c1C(N)=O | inactive
CCn1c(O)c(N=NC(=O)CNC(=O)/C=C/c2ccco2)c2ccccc21 | inactive
CC1CN2C(c3ccc(Cl)cc3)=CSC2=N1 (configuration not stated) | inactive
Cc1cc(C)c[n+](-c2nc([O-])sc2C=O)c1 | inactive
Cc1ccc2c(c1Cl)NC(C(=O)O)C1CC(Sc3ccccc3[N+](=O)[O-])C(Cl)C21 (configuration not stated) | inactive
COC(=O)c1ccc(CC(=O)c2c(C)cc(O)cc2O)o1 | inactive
Cn1cc(CNC(=O)C2c3ccccc3Oc3ccccc32)cn1 | inactive
CC(=O)Nc1ccc(/C=C/c2nc(-c3ccccc3O)n[nH]2)cc1 | inactive
O=C(NNC(=O)c1ccccc1Cl)c1csc(N2CCOCC2)n1 | inactive
Nc1ccc([N+](=O)[O-])cc1C(=O)NNC(=O)c1ccco1 | inactive
COC(=O)c1ccccc1N=Nc1c(N)n[nH]c1N | inactive
CC1=Nc2ccc(C)cc2/C1=C/c1c(N)n2c(S(=O)(=O)C(C)C)nsc2nc1=O | inactive
Cc1csc(NC(=O)c2ccc(-c3ccc(Cl)cc3Cl)o2)n1 | inactive
O=c1c(OC2OC(CO)C(O)C(O)C2O)c(-c2ccc(O)c(O)c2)oc2cc(O)cc(O)c12 (configuration not stated) | inactive
Cc1cccn2c(=O)c3cc(S(=O)(=O)c4ccc(Br)cc4)c(=N)n(C4CCCCC4)c3nc12 | inactive
CCN(CC)c1ccc(/C=N/N2CCN(c3ccccc3OC)CC2)cc1 | inactive
Cc1nc2c(N=Nc3ccccc3F)c(N)nn2c(N)c1C#N | inactive
CN1C(=O)NC(c2ccccc2Cl)C2=C1CC(C)(C)CC2=O (configuration not stated) | inactive
COc1ccc(NC(=O)c2coc(C)c2)cc1 | inactive

Compound | activity change, negative = inhibition
O=C(N/N=C/c1c(O)ccc2ccccc12)c1ccc[n+](CCO)c1 | inactive
Cc1cc(C)c2ccc(C(=O)O)nc2c1O | inactive
CCc1nc2ccccc2c(=O)n1/N=C/c1ccc(OC)cc1 | inactive
CC(=O)O[C@@H]1[C@@H](O)[C@@H](O)[C@H](Oc2c(-c3ccc(O)cc3)oc3c(CC=C(C)C)c(O)cc(O)c3c2=O)O[C@H]1C | inactive
CN=c1scc(-c2ccco2)n1/N=C/c1ccc(O)c(O)c1 | inactive
NC(=S)N=Nc1c(O)[nH]c2cc(F)c(F)cc12 | inactive
Cc1ccc(S(=O)(=O)c2cc3c(=O)n4cccc(C)c4nc3n(C3CCCCC3)c2=N)cc1 | inactive
CC(=O)N1CCc2c(sc(NC(=O)C3CCCN3S(=O)(=O)c3cccs3)c2C#N)C1 (configuration not stated) | inactive
CC(C)(C)N(CC#CCC(O)(c1ccccc1)c1ccccc1)CCO | inactive
CCN(CC)c1ccc2nc3ccccc3[n+](CC)c2c1 | inactive
CCCCN(C(=O)c1ccc(C)o1)c1c(N)n(CCCC)c(=O)[nH]c1=O | inactive
CSc1ccc(/C=C/C(=O)c2ccc(NC(C)=O)cc2)cc1 | inactive
Cc1c(CN2CCCC(C)C2)c(O)n(CCO)c(=O)c1C#N (configuration not stated) | inactive
COc1cc2c(cc1O)CC1c3c(cc(O)c(OC)c3-2)CCN1C (configuration not stated) | inactive
O=[N+]([O-])c1ccc(-c2cn3nc(-c4ccccc4)c(-c4ccccc4)nc3n2)cc1 | inactive
O=C(O)c1ccc(NCc2cccnc2)cc1 | inactive
O=C(NNC(=O)c1ccco1)c1csc(N2CCOCC2)n1 | inactive
CCOc1ccc(/C=C/C(=O)c2ccccc2)cc1 | inactive
CCc1nnc2c(N(C)C)nc3ccccc3n12 | inactive
COc1ccc(/C=N/NC(=S)Nc2cccc(C(=O)O)c2)cc1 | inactive
CCCOc1ccc([C@@H]2C3CN(C(=O)OCC)CC=C3C(C#N)=C(N)C2(C#N)C#N)cc1OC (some centres not stated) | inactive
O=C(O)c1ccc2cccnc2n1 | inactive
C#CCOCCOCCOCCNc1nc(N2CCN(C(=O)[C@H]([C@@H](C)O)n3cc(CCCCN)nn3)CC2)nc(N2CCN(C(=O)[C@H](C)n3cc(CCCN=C(N)N)nn3)CC2)n1 | inactive
Cc1ccc(C(=O)N/C(=C\c2ccc(-c3cccc([N+](=O)[O-])c3)o2)C(=O)NCCCN(C)C)cc1 | inactive

Compound | activity change, negative = inhibition
COc1ccc(CC(=O)NNc2ncnc3c2cnn3C)cc1 | inactive
COC(=O)C1=C(C)OC(N)=C(C#N)C1c1cc(OC)c(OCC(N)=O)cc1Cl (configuration not stated) | inactive
C#CCOCCOCCOCCNc1nc(N2CCN(C(=O)[C@H]([C@@H](C)CC)n3cc([C@@H](N)CO)nn3)CC2)nc(N2CCN(C(=O)[C@H]([C@@H](C)CC)n3cc([C@@H](N)CO)nn3)CC2)n1 | inactive
O=C(NNC(=O)c1ccc([N+](=O)[O-])o1)c1ccccc1 | inactive
COc1ccc(C2c3sc(=O)[nH]c3SCC2C(N)=O)cc1 (configuration not stated) | inactive
COc1ccc(C(CC(=O)N2CCCC2)c2c(OC)cc(OC)c3ccc(=O)oc23)cc1 (configuration not stated) | inactive
COCCN1CCC(CNCc2cn(-c3cc(C)ccc3C)nc2-c2ccccc2)C1 (configuration not stated) | inactive
CCCCCOP(=O)(OCCCCC)C1(NS(=O)(=O)c2ccccc2)C=CC(=O)c2ccccc21 (configuration not stated) | inactive
Oc1cccc(NC(=S)N=Nc2c(O)[nH]c3ccccc23)c1 | inactive
CC1=C(C(=O)OCc2ccccc2)C(c2ccc(N(C)C)cc2)NC(=O)N1 (configuration not stated) | inactive
O=C(Cc1csc(N2CCOCC2)n1)N/N=C/c1ccc(O)c(O)c1O | inactive
COc1ccc(NC(=S)NNC(=O)C(C)n2nc(C)c([N+](=O)[O-])c2C)cc1 (configuration not stated) | inactive
COc1cc2c(cc1OC)[C@@H](Cc1ccc(OCCC#N)cc1)N(C)CC2 | inactive
COc1ccc(-n2c(C)nc3cc(C(=O)O)ccc32)cc1 | inactive
CCOC(=O)c1cnc2c(N=Nc3ccccc3)c(N)nn2c1N | inactive
O=[N+]([O-])c1cc(S(=O)(=O)c2ccc(O)c([N+](=O)[O-])c2)ccc1O | inactive
COc1cccc(NCc2cc(=O)oc3cc(C)c(C(C)C)cc23)c1 | inactive
CCOc1ccccc1C1NC(=O)NC(C)=C1C(=O)OCc1ccccc1 (configuration not stated) | inactive
Cc1cccc(C)c1NC(=O)/C(C#N)=C/c1cccs1 | inactive
CC(=O)c1cc(NC(=O)c2ccc([N+](=O)[O-])cc2)c(=O)oc1C | inactive
COc1ccc(/C=C2\CCCc3c2nc2ccc(C)cc2c3C(=O)O)cc1O | inactive
O=C(O)c1ccc2c(c1)ncn2C1CCCCC1 | inactive
Nc1nc(N)c2[nH]cnc2n1 | inactive
